# Measured values taken from patent US12324813B2, “Method and pharmaceutical composition for rescuing retinal degeneration” (Taipei Veterans General Hospital, priority 2023, dated 2025).
# Entries after “also recorded” stand apart in the source; their conditions may differ.
# Assays:
# ARPE-19 cells [1] = experiment: qRT-PCR of p62 mRNA in ARPE-19 cells; format: cell-based; conditions: ARPE-19 co-treated with BCI and NaIO3 for 6 hours
# Experimental: The cDNA was diluted to 200 ng/μL with sterile water and mixed with SYBR PCR Master Mix and primers. Amplification reaction was performed in a thermal cycler according to the manufacturer's instructions. mRNA abundance was quantified using the threshold cycle method. The mRNA expression of GAPDH was used as an internal control for normalization.
# ARPE-19 cells [2] = experiment: Immunoblotting analysis of treated ARPE-19 cells; format: cell-based
# Experimental: Cells were treated with the autophagy inhibitor Bafilomycin A1 (Sigma, Saint Louis, MO, USA) at 75 nM or DUSP6 inhibitor BCI (Sigma, Saint Louis, MO, USA) at 1.25 μM or 2.5 μM for 6 h at 37° C. Proteins were collected after treatment for further study. C57BL/6N mice were sacrificed and their eyes were collected. The excess muscle tissue outside the sclera was removed and then a needle was used to make a hole in the cornea then remove the whole cornea. Next, we eliminated the lens and retina, and finally lysed the remaining tissue RIPA buffer (10× Merck Millipore, Temecula, CA, USA) containing with 1% protease inhibitor. Meanwhile, in vitro ARPE-19 cells were collected and lysed with RIPA buffer containing with 1% protease inhibitor. Subsequently, cell lysates were centrifuged for 10 min at 4° C. and the supernatants were collected. Next, the protein concentrations were measured via the BCA Protein Quantification Kit. An equal weight of total protein was separated by electrophoresis on SDS/PAGE. After the proteins were transferred onto polyvinylidene difluoride (PVDF) membranes (Millipore, Bedford, MA, USA), the membranes were incubated with blocking buffer (1×TBST and 5% skim milk) for 1 h at room temperature. After the blocking step, the membranes were incubated with the following primary antibodies at 4° C. overnight: DUSP6 (Abcam, Cambridge, UK), Phospho-ERK1/2 (Cell Signaling, Danvers, MA, USA), ERK1/2 (Cell Signaling, Danvers, MA, USA), LC3B (Novus, Centennial, CO, USA), SQSTM1/p62 (Abcam, Cambridge, UK), LAMP2 (Abcam, Cambridge, UK), Beclin-1 (Cell Signaling, Danvers, MA, USA), and Bactin (Sigma, Saint Louis, MO, USA). Next, membranes were washed three times with TBST and incubated with HRP-conjugated secondary antibodies including Goat anti-mouse IgG (Invitrogen, Carlsbad, CA, USA) and Goat anti-rabbit IgG (Invitrogen, Carlsbad, CA, USA) for 1 h at RT. The antigen-antibody complexes were detected by an enhanced chemiluminescence (ECL) substrate kit (Bioman, Millipore, Bedford, MA, USA). Bands were analyzed and quantified by the ImageJ (NIH, Bethesda, MD, USA) analysis software.
# ARPE-19 cells [3] = experiment: Live imaging of GFP-LC3-RFP-LC3AG reporter in ARPE-19 cells; format: cell-based; conditions: ARPE-19, BCI under NaIO3-induced oxidative stress
# Source text: Furthermore, to estimate the autophagic flux in BCI-treated ARPE-19 cells, we introduced the GFP-LC3-RFP-LC3AG gene into ARPE-19 cells and monitored live images taken after BCI treatment.
# ARPE-19 cells [4] = experiment: Immunocytochemistry / immunofluorescence staining of ARPE-19 cells; format: cell-based
# Experimental: In vitro, the cells were seeded in 24-well plates at a density of 2×10^5 per well and incubated at 37° C. with 5% CO2 for 24 h. […] After rinsing three times with PBS, the cells were permeabilized and blocked with a blocking solution (0.3% BSA and 0.1% Triton X-100 in PBS) at room temperature for 1 h. After blocking, cells were incubated with primary antibodies overnight at 4° C. The primary antibodies include DUSP6 (Abcam, Cambridge, UK), Phospho-ERK1/2 (Cell Signaling, Danvers, MA, USA), LC3B (Novus, Centennial, CO, USA), and SQSTM1/p62 (Abcam, Cambridge, UK). After incubation, cells were washed three times with PBST (0.1% Triton X-100 in PBS). Secondary antibodies (1:700) were applied for 3 h at room temperature. The secondary antibodies include IgG Alexa 488 goat anti-rabbit IgG and Alexa 594 goat anti-mouse IgG. Nuclei were stained with DAPI (1:1000) for 10 min at 4° C. and slides were observed by a light microscope (Olympus America, Melville, NY, USA). In vivo, the sample slices were pretreated with bleaching solution (1% NaH2PO4 and 2.5% H2O2) overnight at room temperature. Next, the primary antibodies, including DUSP6, Phospho-ERK1/2, LC3B, SQSTM1/p62, and RPE65, were incubated with the sample slices overnight at 4° C. After incubation, the samples were washed three times with PBST. Tests with secondary antibodies (1:700) were conducted for 1 h at room temperature. The secondary antibodies included IgG Alexa 488 goat anti-rabbit IgG and Alexa 594 goat anti-mouse IgG. After treating them with mounting solution, the slides were observed by a fluorescence microscope (Olympus America, Melville, NY, USA).
# C57BL/6N mice = experiment: DUSP6 inhibitor (BCI) treatment in NaIO3-treated mice; format: in vivo
# Source text: Retina samples were fixed with 4% paraformaldehyde (Sigma, Saint Louis, MO, USA) overnight, followed by 1×PBS. The methodology used for fixation, dehydration, clearing, infiltration, and embedding was developed according to that of Bio-Check Laboratories. […] The morphology of the retina was observed using a light microscope (Olympus America, Melville, NY, USA). Next, the thicknesses of the retina, defined as the distance between the inner limiting membrane, Bruch's membrane, and the outer nuclear layer (ONL), were measured by Image J (NIH, Bethesda, Maryland, USA). In vitro, the cells were seeded in 24-well plates at a density of 2×10^5 per well and incubated at 37° C. with 5% CO2 for 24 h. […] After rinsing three times with PBS, the cells were permeabilized and blocked with a blocking solution (0.3% BSA and 0.1% Triton X-100 in PBS) at room temperature for 1 h. After blocking, cells were incubated with primary antibodies overnight at 4° C. The primary antibodies include DUSP6 (Abcam, Cambridge, UK), Phospho-ERK1/2 (Cell Signaling, Danvers, MA, USA), LC3B (Novus, Centennial, CO, USA), and SQSTM1/p62 (Abcam, Cambridge, UK). After incubation, cells were washed three times with PBST (0.1% Triton X-100 in PBS). Secondary antibodies (1:700) were applied for 3 h at room temperature. The secondary antibodies include IgG Alexa 488 goat anti-rabbit IgG and Alexa 594 goat anti-mouse IgG. Nuclei were stained with DAPI (1:1000) for 10 min at 4° C. and slides were observed by a light microscope (Olympus America, Melville, NY, USA). In vivo, the sample slices were pretreated with bleaching solution (1% NaH2PO4 and 2.5% H2O2) overnight at room temperature. Next, the primary antibodies, including DUSP6, Phospho-ERK1/2, LC3B, SQSTM1/p62, and RPE65, were incubated with the sample slices overnight at 4° C. After incubation, the samples were washed three times with PBST. Tests with secondary antibodies (1:700) were conducted for 1 h at room temperature. The secondary antibodies included IgG Alexa 488 goat anti-rabbit IgG and Alexa 594 goat anti-mouse IgG. After treating them with mounting solution, the slides were observed by a fluorescence microscope (Olympus America, Melville, NY, USA). […] The structure of the retina was analyzed by real-time images and H & E staining. Proteins were collected from retina for further study.
# [5] = NaIO3 30 mg/kg i.p. then BCI 0.5 mg/kg intravitreal
# [6] = NaIO3-treated ARPE-19 cells with Baf-A1 75 nM
Structure (SMILES),p62 mRNA level (ARPE-19 cells [1]),"p-ERK/ERK ratio (ERK activity) (ARPE-19 cells [2]; NaIO3-treated ARPE-19, BCI 1.25 and 2.5 μM, 6 h)","autophagic markers (immunoblotting) (ARPE-19 cells [2]; NaIO3-treated ARPE-19, BCI 1.25 and 2.5 μM, hydrochloride)",GFP / RFP LC3 signal (late-stage autophagy) (ARPE-19 cells [3]),"autophagosomes (fluorescence images) (ARPE-19 cells [4]; ARPE-19, BCI 1.25 μM, oxidative conditions)","speckles of p-ERK (ARPE-19 cells [4]; ARPE-19, BCI with or without NaIO3)",perinuclear p62 punctate (ARPE-19 cells [4]; ARPE-19 co-treated with NaIO3 and BCI),"cell-cell junction (tight junction marker ZO-1) (ARPE-19 cells [4]; RPE cells, NaIO3 vs control, BCI co-treatment)",ONL disorganization (H & E) (C57BL/6N mice; BCI 0.5 mg/kg intravitreal in presence of NaIO3-induced oxidative stress),ONL thickness (C57BL/6N mice; BCI group vs NaIO3 group),melanin deposition on the retina (C57BL/6N mice; BCI group vs mice treated with NaIO3 only),co-localization of LC3B and p62 between the ONL and RPE layers (C57BL/6N mice; [5]),phosphorylated ERK speckles around the ONL and RPE layers (C57BL/6N mice; [5]),accumulation of p62 in mouse retinas (C57BL/6N mice; mouse retinas treated with BCI),LC3B-II expression (ARPE-19 cells [2]; [6]),p62 expression levels (ARPE-19 cells [2]; [6])
"Cl.O=C1/C(=C/c2ccccc2)C(NC2CCCCC2)c2ccccc21 (mixture of isomers) [BCI, (E/Z)-BCI hydrochloride]",upregulated,significantly increased in NaIO3-treated cells after BCI treatment in a dose-dependent manner,upregulation of autophagic markers upon BCI treatment in a dose-dependent manner; also recorded: also upregulated,GFP-positive signal being shifted to an RFP-positive signal,aggregation of autophagosomes,"increased after BCI treatment, despite the presence or absence of NaIO3",significantly upregulated,rescue the cell-cell junction,alleviated,restored the ONL thickness,significantly reduced,excessive co-localization,dramatically enhanced,significantly decreased,,
"CO/C1=C\C(C)=C\[C@@H](C)[C@@H](O)[C@@H](C)C/C(C)=C/C=C/[C@H](OC)[C@@H]([C@@H](C)[C@@H](O)[C@H](C)[C@@]2(O)C[C@@H](O)[C@H](C)[C@@H](C(C)C)O2)OC1=O [Baf-A1, Bafilomycin A1]",,,,,,,,,,,,,,,increase in LC3B-II expression in a dose-dependent manner,remained unchanged
